Our source for the IC50 values is ChEMBL document CHEMBL1128587, “Structure-based inhibitors of influenza virus sialidase. A benzoic acid lead with novel interaction” (J Med Chem, 1995).

Holding throughout (type): functional, organism-based
The test system of assay [1] is Influenza B virus. As to the kind of experiment: The compound was tested in vitro for the inhibitory concentration against influenza B/Mem/89 sialidase from whole virus by fetuin assay.
The test system of assay [2] is Influenza A virus. The experiment in a line: The compound was tested in vitro for the inhibitory concentration against influenza N2 sialidase from whole virus by fetuin assay.
Assay [3] relates to Influenza A virus. The experiment in a line: The compound was tested in vitro for the inhibitory concentration against influenza N2 sialidase from whole virus by MUN assay.
Assay [4] relates to Influenza B virus. As to the kind of experiment: The compound was tested in vitro for the inhibitory concentration against influenza B/Mem/89 sialidase from whole virus by MUN assay.

SMILES strings stand for the structures.

With `CC(=O)Nc1ccc(C(=O)O)cc1OC(C)=O`, the IC50 (usually the concentration at which inhibition is half-maximal) is 5 mM in assay [1], 10 mM in assay [2], > 10 mM in assay [3] and > 10 mM in assay [4].

As for `CC(=O)Nc1c(N)cc(C(=O)O)cc1O`, the concentration for half-maximal inhibition (IC50) was > 10 mM in assay [1], > 10 mM in assay [2], > 10 mM in assay [3] and 10 mM in assay [4].

Turning to `CC(=O)Nc1ccc(C(=O)O)cc1N`, the figures for the IC50 in assay [2], in assay [3] and in assay [4] were > 10 mM, > 10 mM and > 20 mM, respectively.

With `CC(=O)NC1C(O)CC(O)(C(=O)O)OC1[C@H](O)[C@H](O)CO` (stereo partly drawn), the IC50 in assay [4] was > 10 mM.

Take `CC(=O)Nc1ccc(C(=O)O)cc1NC(=O)CCCN`: the IC50 in assay [1], in assay [2], in assay [3] and in assay [4] was > 10 mM in each case.

In the case of `CC(=O)Nc1ccc(C(=O)O)cc1[N+](=O)[O-]`, the IC50 in assay [1], in assay [2], in assay [3] and in assay [4] was 5 mM each time.

Regarding `CC(=O)Nc1cc([N+](=O)[O-])c(C(=O)O)c([N+](=O)[O-])c1O`, the half-inhibitory concentration (IC50) in assay [1] was 4 mM; in assay [2], 3 mM; in assay [3], 1 mM; in assay [4], 1 mM.

Turning to `CC(=O)Nc1c(OC(C)=O)cc(C(=O)O)cc1[N+](=O)[O-]`, the IC50 in assay [1] worked out at 4 mM; in assay [2], 3 mM; in assay [3], 5 mM; in assay [4], 2 mM.

`CC(=O)Nc1c(O)cc(C(=O)O)cc1[N+](=O)[O-]`: the IC50 in assay [1] came out at 1 mM; in assay [2], 1 mM; in assay [3], 0.75 mM; in assay [4] it was 0.75 mM.

On to `CC(=O)Nc1ccc(C(=O)O)cc1NC(=O)CO`, for which the 50% inhibitory concentration (IC50) in assay [1] is 10 mM; in assay [2], > 10 mM; in assay [3], 4 mM; in assay [4], 3 mM.

For `CC(=O)Nc1ccc(C(=O)O)cc1NC(=O)C(O)CO` (stereo not drawn), the half-maximal inhibitory concentration (IC50) in assay [1] is > 10 mM; in assay [2] it was 4 mM; in assay [3], 5 mM; in assay [4], 8 mM.

Consider `CC(=O)Nc1ccc(C(=O)O)cc1O` [3-HYDROXY-4-ACETYLAMINOBENZOIC ACID], for which the half-inhibitory concentration (IC50) in assay [1] is 10 mM; in assay [2] it was 10 mM; in assay [3] it was > 10 mM; in assay [4], > 10 mM.

With `CC(=O)N[C@H]1[C@H]([C@H](O)[C@H](O)CO)OC(C(=O)O)=C[C@@H]1O` [NEU5AC2EN], the IC50 in assay [1], in assay [2], in assay [3] and in assay [4] was 0.015 mM in each case.
